Data: PubChem BioAssay AID844 (SRMLSC, 2007)
Activity calls are given as the source filed them. The rule behind the calls is not given here.

Test system: MRP1 cells, doxorubicin viability shift, 10 uM compound
Assay: doxorubicin EC50 increase in MRP-1 cells, dose response, cell-based, doxorubicin EC50 shift (AID 844)
Conditions: for EC50: measured here: doxorubicin EC50 with compound

Row | Structure (SMILES) | fold increase in Dox EC50 | EC50 [µM]
1 | O=C1CC(N2CCCN(C3CC(=O)N(c4ccc(F)cc4)C3=O)CC2)C(=O)N1c1ccc(F)cc1 (stereo not given) | 1.17 (inactive) | 6.34
2 | CCc1nnc(NC(=O)C2CCCN2S(=O)(=O)c2ccccc2)s1 (stereo not given) | 1.46 (inactive) | 7.89
3 | N=C(N)SCc1cccc2ccccc12 | 0.35 (inactive) | 1.9
4 | CCOc1ccc2c(c1)c(N=O)c(O)n2C | 0.58 (inactive) | 3.14
5 | C=C(C)C(=O)NC1=NN(c2ccccc2)C(=O)C1 | 1.04 (inactive) | 5.63
6 | Cc1cccc(OCCNC(=O)c2ccc(Oc3ccc(C(F)(F)F)cc3[N+](=O)[O-])cc2)c1 | 1.12 (inactive) | 6.05
7 | O=C(NCC1(c2ccccc2)CCOCC1)c1ccc(Br)o1 | 1.3 (inactive) | 7.01
8 | COc1ccc(C(=O)Nc2ccccc2Cc2ccccc2)c(OC)c1 | 0.66 (inactive) | 3.54
9 | CCn1c(C)c(C)c2cc(C(=O)Nc3cccc(Cl)c3)ccc21 | 0.43 (inactive) | 2.33
10 | CCc1ccc(-c2csc(NC(=O)Oc3ccccc3)n2)cc1 | 1.23 (inactive) | 6.65
11 | O=C(COC(=O)C1CC2C=CC1C2)Nc1ccc2c(c1)OC(F)(F)O2 (stereo not given) | 1.21 (inactive) | 6.54
12 | COc1cccc(C2C(C(=O)Nc3nc4ccccc4s3)=C(C)NC3=C2C(=O)CC(C)(C)C3)c1OC (stereo not given) | 0.3 (inactive) | 1.6
13 | Cc1cc(C)nc(NS(=O)(=O)c2ccc(NC(=O)c3ccc4c(c3)OCO4)cc2)n1 | 0.94 (inactive) | 5.05
14 | O=[N+]([O-])c1ccc(N/N=C/c2ccccc2)c(F)c1 | 0.64 (inactive) | 3.44
15 | CCCC(=O)NC(=S)Nc1ccc(C(C)=O)cc1 | 0.46 (inactive) | 2.48
16 | O=C(Nc1nc(-c2cccs2)c(-c2cccs2)s1)C1(c2ccccc2)CC1 | 0.66 (inactive) | 3.58
17 | Cc1cc(C)c(NC(=O)c2sc3nc4c(cc3c2N)C(=O)CC(C)(C)C4)c(C)c1 | 0.7 (inactive) | 3.76
18 | Cc1ccc(CCNC(=O)C2CCCN2S(=O)(=O)c2ccc3c(c2)CCC(=O)N3)cc1 (stereo not given) | 0.64 (inactive) | 3.46
19 | Cc1cccc(N2CCN(C(=O)c3cc4c(=O)n(C)c5ccccc5c4n3C)CC2)c1C | 0.08 (inactive) | 0.44
20 | O=C(c1ccco1)N1CCN=C1SCc1ccc(F)cc1 | 0.87 (inactive) | 4.71
21 | CC1CC(C)CN(c2ncnc3c2cnn3-c2ccc(Cl)cc2)C1 (stereo not given) | 0.35 (inactive) | 1.89
22 | COc1cccc(Nc2ncc(C(=O)O)c3ccccc23)c1 | 0.56 (inactive) | 3.01
23 | CC(C)Cc1nnc(NC(=O)CSc2ncn[nH]2)s1 | 0.9 (inactive) | 4.87
24 | CCCCCCCC1CC(CSc2ncn[nH]2)OC1=O (stereo not given) | 0.94 (inactive) | 5.08
25 | COc1ccc(Cn2c(O)c(C=Nc3ccc(OC)cc3)c3ccccc3c2=O)cc1 | 1.34 (inactive) | 7.24
26 | COc1ccc(/C=N/Nc2nc(-c3ccc(Cl)cc3)cc(C(F)(F)F)n2)cc1OC | 0.35 (inactive) | 1.9
27 | Cc1ccc(C(=O)NNC(=O)c2ccc(SCC3CCCO3)c([N+](=O)[O-])c2)cc1 (stereo not given) | 0.56 (inactive) | 3.01
28 | CC1CCc2c(sc3nc(CSc4ncn[nH]4)[nH]c(=O)c23)C1 (stereo not given) | 0.81 (inactive) | 4.4
29 | OCCN=C1CCCc2c1[nH]c1ccc(Br)cc21 | 0.84 (inactive) | 4.56
30 | O=[N+]([O-])c1ccc(O)c(N=Cc2sc3ccccc3c2O)c1 | 0.08 (inactive) | 0.457
